In US6140336A, “Spiro[2H-1-benzopyran-2,4'-piperidine]-4(3H)-one derivatives, acid addition salts thereof and pharmaceutical compositions containing them” (Richter Gedeon Vegyeszeti Gyar Rt., priority 1996, dated 2000):
pIC50: −log10 of the molar value. Structures can show the parent of a compound that is named as a salt. Where two headings read alike, the source gives them in different places.

Columns and labels:
[1] = Electroshock (ECS) induced retrograde amnesia, passive avoidance test; format: in vivo, NMRI mice; conditions: for Prevention %: 2 hours after learning
Source text: (§1) The biological activity of the compounds of formulas (I) and (Ia) was studied by using passive avoidance test. This test is one of the most widely used animal experimental model for investigating the effects of substances on the cognitive functions (learning and memory processes). This is based on inhibition of the genetically determined behavior of rodents (mice and rats) that they prefer dark space to light one. A single electric shock given in the dark box is employed as a memory trace, the retention and retrieval of which can be controlled after a shorter or longer period.
In this test, the retrograde amnesia was induced on NMRI mice having a body weight of 24-26 g by using an auricular electroshock treatment of 20 mA for 0.2 s at one hour following the learning. The compounds to be tested were administered 2 hours after learning. The protective effect was calculated as percentage value (p%D) by using the following formula: [formula]
P%=Ttreated+ECS -Tplacebo+ECS /Tplacebo -Tplacebo+ECS
(§2) In the above formula, T means the measured retention time of animals treated as shown in the index or the measured retention time of untreated animals, respectively.

[2] = Diazepam (DIA) induced anterograde amnesia, passive avoidance test; format: in vivo, NMRI mice; conditions: for protection against the amnesic effect of diazepam, lower versus higher dose: 0.1 mg/kg and 10 mg/kg p.o.; for inhibition in vivo at 0.1 mg/kg / inhibition in vivo at 10 mg/kg: Mus musculus, po, 1 h, read-out: Prevention %; for significantly antagonized the amnesic effect of diazepam (percentage): Table 1, p.o.; for antiamnesic effect (overall): overall conclusion from the amnesia tests
Source text: as §1
The passive avoidance test was carried out on NMRI mice with a body weight of 25-28 g. During the learning, preselected animals (mice entering into a dark space from an illuminated space within 30 s) were placed into an illuminated space. After entering into the dark space, the animal received within 30 s onto his paw an electric shock (1 mA for 3 s) causing an unpleasant sensation. The time of entry into the dark space (latency period) was measured. During the check, after 24 hours, the animals were again put back to the illuminated space and the time elapsed until entry into the dark space (retention time) was measured (limit time=300 s). The animals were intraperitoneally (i.p.) treated with 3 mg/kg of diazepam (chemically, 7-chloro-1,3-dihydro-1-methyl-5-phenyl-2H-1,4-benzodiazepin-2-one) 30 minutes before learning in order to induce anterograde amnesia. The compounds were orally (p.o.) administered in doses of 0.1 or 10 mg/kg, respectively one hour before the learning. The protective effect was calculated percentage value (P%) by using the following formula: [formula]
as §2

[3] = format: in vivo, rats; conditions: for ED50: i.v.
Experimental: These experiments were carried out on rats (with a body weight of 180-200 g) anaesthetized by urethane (1.25 g/kg i.p.) in such a way that 50 μg/kg of aconitine [chemically acetyl benzoyl aconine] was injected to the tail vein then, the arrhythmic disturbances were observed on ERG II lead after 5 minutes [J. Med. Exp. 10, 93 (1964)].
The compounds to be tested for antiarrhythmic effect were intravenously (i.v.) administered 2 minutes, or orally one hour before aconitine.
The aconitine arrhythmia was evaluated in such a manner that the severity of arrhythmia was characterized by an increasing number and, after average calculation both in the control as well as in the tested group, the average of treated group was expressed as percentage of the control. The arrhythmia was characterized by the following scores: […]

[4] = Normobaric hypoxia-induced memory deficiency model on rats; format: in vivo; conditions: 10 mg/kg oral
Experimental: (§3) Compound 4610351 has been investigated in detail both under in vitro and in vivo conditions. This compound evened 36% protection in an oral dose of 10 mg/kg in the normobaric hypoxia-induced memory deficiency model on rats; this surpassed the protective effect of 21% provided by 10 mg/kg oral dose of vinpocetine. […] On the basis of these investigations, compounds of formulas (I) and (Ia) can be utilized for the treatment of diseases and dementias accompanied by the impairment of cognitive processes (learning, memory), such as multiinfarct and Alzeimer type dementias, states following stroke, ischaemic injuries, sequels of trauma of the central nervous system, parkinsonism, Huntington's chorea or multiple sclerosis. The therapeutical doses of compounds of formulas (I) and (Ia) can range between 0.1 and 40 mg/kg of body weight given orally, daily once or several times.

[5] = tested on: neuronal calcium uptake (K^+ -induced); assay: K+ -induced 45Ca uptake by synaptosome preparation; format: biochemical
Experimental: as §3

[6] = tested on: neuronal calcium uptake (veratrine-induced); assay: Veratrine-induced 45Ca uptake by synaptosome preparation; format: biochemical
Experimental: as §3

[7] = Stability of hydrogen maleate salt versus free base; format: physicochemical
[8] = 30 mg/kg p.o., one hour before aconitine
[9] = 0.1 mg/kg p.o., one hour before learning, diazepam 3 mg/kg i.p., * = p < 0.05 vs diazepam control
[10] = 10 mg/kg p.o., one hour before learning, diazepam 3 mg/kg i.p., * = p < 0.05 vs diazepam control
[11] = 10 mg/kg p.o., * marks significance

| Compound | significantly antagonized the amnesic effect of diazepam (percentage) [2] | antiamnesic effect (overall) [2] | Inhibition (%) ([3]; 10 mg/kg i.v.) | Inhibition (%) ([3]; 30 mg/kg i.v.) | Inhibition (%) [3, 8] | inhibition in vivo at 0.1 mg/kg [2, 9] | inhibition in vivo at 10 mg/kg [2, 10] | also measured |
| --- | --- | --- | --- | --- | --- | --- | --- | --- |
| NC(=O)[C@@H]1CCCN1C(=O)[C@H](Cc1c[nH]cn1)NC(=O)[C@@H]1CCC(=O)N1 [TRH, 5-oxo-L-prolyl-L-histidyl-L-proline amide, reference compound] |  |  |  |  |  |  |  | Prevention % ([1]; 1 mg/kg i.p.): 77%; Prevention % ([1]; 10 mg/kg i.p.): 35% |
| O=C1CC2(CC[N+](Cc3ccc([N+](=O)[O-])cc3)(Cc3ccc([N+](=O)[O-])cc3)CC2)Oc2ccccc21 [Compound 4611265] | 105-176% | significant antiamnesic effect | 21% | 10% | 0% |  |  | protection against the amnesic effect of diazepam, lower versus higher dose [2]: nearly the same protection; inhibition in vivo at 0.1 mg/kg [2]: 86%; inhibition in vivo at 10 mg/kg [2]: 134% |
| CC(C)(C)c1ccc(CN2CCC3(CC2)CC(=O)c2ccccc2O3)cc1 [Compound 4611266, 1'-(4-tert-butylbenzyl)-spiro[2H-1-benzopyran-2,4'-piperidine]-4(3H)-one] | 105-176% | significant antiamnesic effect | 21% | 3% | 0% | 159% | 105% | protection against the amnesic effect of diazepam, lower versus higher dose [2]: nearly the same protection |
| O=C1CC2(CCN(Cc3ccccc3)CC2)Oc2ccccc21 [Compound 4600592, 1'-Benzylspiro[2H-1-benzopyran-2,4'-piperidine]-4(3H)-one] | 105-176% |  | 3% | 19% | 0% | 144% | 92% | Prevention % ([1]; 1 mg/kg p.o.): 48%; Prevention % [1, 11]: 44%; protection in ECS-induced retrograde amnesia ([1]; mouse, in vivo): No considerable protection |
| O=C1CC2(CCN(Cc3ccc(Cl)cc3)CC2)Oc2ccccc21 [Compound 4610351] | 105-176% | significant antiamnesic effect | 16% | 16% | 5% | 78% | 176% | Prevention % ([1]; 1 mg/kg p.o.): 81%; Prevention % [1, 11]: 108%; reversal of ECS-caused amnesia ([1]; both doses): could significantly reverse the ECS-caused amnesia in both doses; reversal of ECS-caused amnesia ([1]; higher dose): 108%; protection, normobaric hypoxia-induced memory deficiency [4]: 36%; pIC50 [5]: 4.34; pIC50 [6]: 5.35 |
| O=C1CC2(CCN(Cc3ccc(F)cc3)CC2)Oc2ccccc21 [Compound 4610282] | 105-176% | significant antiamnesic effect |  |  |  | 131% | 24% | protection in ECS-induced retrograde amnesia ([1]; 0.1 mg/kg (as printed in text)): 77%; Prevention % ([1]; 1 mg/kg p.o.): 77%; Prevention % [1, 11]: 29% |
| C=C[C@H]1C[N@@]2CC[C@H]1C[C@@H]2[C@@H](O)c1ccnc2ccc(OC)cc12 [Quinidine, (S)-(6-methoxy-4-quinolinyl)-[(2R.4S.5R)-5-vinyl-2-quinuclidinyl]methanol] |  |  | 55% | 83% |  |  |  | Inhibition (%) ([3]; 0.3 mg/kg i.v.): 34%; ED50 [3]: 6.66 mg/kg |
| O=C1CC2(CC[N+](Cc3ccccc3)(Cc3ccccc3)CC2)Oc2ccccc21 [Compound 4611267, 1',1'-dibenzyl-spiro[2H-4(3H)-oxo-1-benzopyran-2,4'-piperidinium]hydrochloride] |  |  | 0% | 29% | 0% | 47% | 67% |  |
| CCN1C[C@H]2CN(C)C[C@@H](C1)C2OC(=O)c1ccc(Cl)cc1 (stereo partly drawn) [Bisaramil, 3-methyl-7-ethyl-9α-(4-chlorobenzoyloxy)-3,7-diazabicyclo[3.3.1]nonane hydrochloride] |  |  |  |  |  |  |  | Inhibition (%) ([3]; 0.3 mg/kg i.v.): 20%; Inhibition (%) ([3]; 0.5 mg/kg i.v.): 48%; Inhibition (%) ([3]; 1.0 mg/kg i.v.): 91%; ED50 [3]: 0.49 mg/kg |
| Cc1cccc(C)c1OCC(C)N (stereo not shown) [Mexiletine, 1-methyl-2-(2,6-xylyloxy)ethylamine] |  |  | 62% |  |  |  |  | Inhibition (%) ([3]; 1.0 mg/kg i.v.): 29%; Inhibition (%) ([3]; 3.0 mg/kg i.v.): 68%; ED50 [3]: 2.51 mg/kg |
| O=C1CC2(CCN(Cc3ccc(Br)cc3)CC2)Oc2ccccc21 [Compound 4611109] |  |  |  |  |  | 92% | 0% | antiamnesic action in lower doses ([2]; 0.1 mg/kg p.o.): showed an antiamnesic action; antiamnesic action in higher doses ([2]; 10 mg/kg p.o.): inactive |
| O=C1CC2(CCN(Cc3ccc([N+](=O)[O-])cc3)CC2)Oc2ccccc21 [Compound 4610350] | 105-176% | significant antiamnesic effect |  |  |  | 170% | 29% | antiamnesic action in lower doses ([2]; 0.1 mg/kg p.o.): showed an antiamnesic action; antiamnesic action in higher doses ([2]; 10 mg/kg p.o.): inactive; Prevention % ([1]; 1 mg/kg p.o.): 0%; Prevention % [1, 11]: 8% |
| CCCCc1oc2ccccc2c1C(=O)c1cc(I)c(OCCN(CC)CC)c(I)c1 [Amiodarone] |  |  | 70% |  |  |  |  | Inhibition (%) ([3]; 3.0 mg/kg i.v.): 13%; Inhibition (%) ([3]; 5.0 mg/kg i.v.): 29%; ED50 [3]: 7.04 mg/kg |
| O=C1CC2(CCN(Cc3ccccc3)CC2)Oc2ccccc21 |  |  |  |  |  |  |  | stability over the free base form [7]: higher stability |
| CCOC(=O)C1=C[C@]2(CC)CCCN3CCc4c(n1c1ccccc41)[C@@H]32 [Vinpocetine, ethyl apovincaminate, reference compound] |  |  |  |  |  | 0% | 123% | protection, normobaric hypoxia-induced memory deficiency [4]: 21% |
